From the Bradley open melting point set (2014)
Values joined by “and” are separate entries in the source; they are usually repeats but may differ in a detail not shown here. Equal entries are not always repeated.

Row | Compound | melting point
1 | ClCBr [Bromo(chloro)methane] | -88 °C
2 | O=C(O)c1ccc2c(c1)C(=O)OC2=O [1,2,4-benzenetricarboxylic anhydride] | 167 °C
3 | CCCCCCCCCCCC(=O)OOC(=O)CCCCCCCCCCC [Diundecylperoxyanhydride] | 56 °C
4 | O=C(O)C(Cl)Cl [Dichloroacetic acid] | 9.7 °C
5 | Nc1ccc(Cl)cc1 [4-chloroaniline] | 70 °C
6 | O=C1OC(c2ccccc2)=NC1=Cc1ccc(-c2ccccc2)o1 [2-Phenyl-4-(5-phenyl-furan-2-ylmethylene)-4H-oxazol-5-one] | 143 °C
7 | COc1ccc(CC#N)cc1OC [3,4-dimethoxyphenylacetonitrile] | 64 °C
8 | C[C@]12CCC(=O)C=C1CC[C@@H]1[C@@H]2CC[C@@]2(C)[C@H]1CC[C@]2(C)O [17a-Methyltestosterone] | 163 °C
9 | C=CC [1-propene] | -185 °C
10 | O=c1ccc2ccccc2[nH]1 [2-hydroxyquinoline] | 198 °C
11 | O=[N+]([O-])/C=C/c1cccc([N+](=O)[O-])c1 [beta,3-dinitrostyrene] | 126 °C
12 | OB(O)c1ccnc(F)c1Cl [3-chloro-2-fluoropyridine-4-boronic acid] | 128 °C
13 | CC(N1CCOCC1)S(=O)(=O)O (stereo not given) [1-(Morpholin-4-yl)ethanesulfonic acid] | 243 °C
14 | Cc1cccc(B(O)O)c1C [2,3-dimethylbenzeneboronic acid] | 175 °C
15 | C[C@]12CC[C@@H]3O[C@@H]3[C@H]1CC[C@@H]1[C@@H]2CC[C@]2(C)C(=O)CC[C@@H]12 [(3beta,4beta,5beta)-3,4-Epoxyandrostan-17-one] | 136 °C
16 | Oc1ccc(-c2nccs2)cc1 [4-(2-thiazolyl)phenol] | 164 °C
17 | CCCCCCCCCCOc1cc(N(NC(=O)OC(C)(C)C)C(=O)OC(C)(C)C)cc(OCCCCCCCCCC)c1OCCCCCCCCCC | 56 °C
18 | CC(=O)/C=C/c1ccccc1 [trans-4-phenyl-3-buten-2-one] | 41 °C
19 | O=C(Cl)OCC1c2ccccc2-c2ccccc21 [9-fluorenylmethyl chloroformate] | 62 °C
20 | C[C@]12CC[C@H](O)[C@@H](O)[C@H]1CC[C@@H]1[C@@H]2CC[C@]2(C)C(=O)CC[C@@H]12 [(3beta,4alpha,5beta)-3,4-Dihydroxyandrostan-17-one] | 221 °C
21 | OB(O)c1cccc(Oc2ccccc2)c1 [3-phenoxybenzeneboronic acid] | 141 °C
22 | NC(=O)c1cc(F)cc(F)c1 [3,5-difluorobenzamide] | 156 °C
23 | ClCC(Cl)Cl [1,1,2-Trichloroethane] | -35 °C
24 | COc1ccccc1N1CCN(CCCC(=O)c2ccc(F)cc2)CC1 [4-[4-(o-Methoxyphenyl)-1-piperazinyl]-p-fluorobutyrophenone] | 68 °C
25 | CC(C)c1ccccc1O [2-isopropylphenol] | 16 °C
26 | CC(C)Cl [2-chloropropane] | -117 °C

Row | Compound | melting point
27 | C1CCC(C2CCCCC2)CC1 [1,1'-Bi(cyclohexyl)] | 4 °C
28 | NCCc1ccccc1 [2-phenylethylamine] | -60 °C
29 | C=CCc1ccc(OC)c(OC)c1 [4-Allyl-1,2-dimethoxybenzene] | -4 °C
30 | COc1cc(C=O)cc(OC)c1 [3,5-dimethoxybenzaldehyde] | 47 °C
31 | CCc1ccc(-c2ccccc2)cc1 [1-ethyl-4-phenylbenzene] | 47 °C
32 | CN(C)CCO [2-(dimethylamino)ethanol] | -60 °C
33 | C=CCNC(N)=S [1-Allylthiourea] | 71 °C
34 | N#CCC(=O)c1ccccc1Cl [2-chlorobenzoylacetonitrile] | 56 °C
35 | Cn1c(/C(C#N)=N/Nc2cccc(Cl)c2)nc2ccccc21 | 166 °C
36 | Oc1cc(Cl)c(Cl)cc1Cl [2,4,5-trichlorophenol] | 69 °C and 67 °C and 68 °C
37 | O=Cc1ccc(F)c(Cl)c1 [3-chloro-4-fluorobenzaldehyde] | 27 °C
38 | NC(=O)c1cc(Cl)cc(Cl)c1 [3,5-dichlorobenzamide] | 160 °C
39 | CCOC(=O)c1cccc(B(O)O)c1 [3-(ethoxycarbonyl)benzeneboronic acid] | 137 °C
40 | CCc1ccc2c(c1)C(=O)c1ccccc1C2=O [2-ethylanthraquinone] | 109 °C
41 | C[SiH](C)O[Si](C)(C)O[SiH](C)C [1,1,3,3,5,5-hexamethyltrisiloxane] | -67 °C
42 | CCC(C)I (stereo not given) [2-iodobutane] | -104 °C
43 | Nc1ccc([N+](=O)[O-])cc1 [p-nitroaniline] | 150 °C
44 | CCCCCCCCCCCCSc1cc(N(NC(=O)OC(C)(C)C)C(=O)OC(C)(C)C)cc(SCCCCCCCCCCCC)c1SCCCCCCCCCCCC | 50 °C
45 | Cc1ccccc1N1CCNCC1 [1-(o-tolyl)piperazine] | 47 °C
46 | Cc1cc(Cl)nc(Cl)c1C#N [2,6-dichloro-4-methylnicotinonitrile] | 113 °C
47 | Cc1c(C)n(C(N)=O)c2ccccc12 [2,3-dimethyl-1H-indole-1-carboxamide] | 188 °C
48 | Brc1nc2ccccc2[nH]1 [2-bromobenzimidazole] | 198 °C
49 | Nc1c(Br)cccc1Br [2,6-dibromoaniline] | 81 °C
50 | c1ccncc1 [pyridine] | -42 °C
51 | C=C[C@H]1C[N@@]2CC[C@H]1C[C@H]2[C@H](O)c1ccnc2ccccc12 [(8alpha,9R)-Cinchonan-9-ol] | 200 °C

Second part, the compound after the results:

Row | melting point | Compound
52 | 183 °C | O=C(O)c1ccc(O)c([N+](=O)[O-])c1 [4-hydroxy-3-nitrobenzoic acid]
53 | 221 °C | CC(=O)c1ccc(O)c(C(N)=O)c1 [5-acetylsalicylamide]
54 | 119 °C | CC(C)c1ccc(C(=O)O)cc1 [4-isopropylbenzoic acid]
55 | 308 °C | CC(C)[C@H](N)C(=O)O [L-Valine]
56 | 58 °C | Nc1ccccc1I [o-iodoaniline]
57 | 165 °C | O=C(O)[C@@]1(O)CC(O)[C@H](O)[C@H](O)C1 (stereo partly drawn) [D-quinic acid]
58 | 102 °C | NC(c1ccccc1)(c1ccccc1)c1ccccc1 [tritylamine]
59 | 116 °C | NC(=S)c1ccccc1 [thiobenzamide]
60 | 67 °C | CCCCCCCCCCCCCCCCCCCCCCCCCCCCCC [N-triacontane]
61 | 100 °C | CC(C)NCC(O)c1cc(O)cc(O)c1 (stereo not given) [metaproterenol]
62 | -47 °C | CC(=O)CC(C)(C)O [4-hydroxy-4-methyl-2-pentanone]
63 | 113 °C | CCOC(=O)c1ccc(-n2c(C)cc(C=O)c2C)cc1 [OSM-S-46]
64 | 174 °C | O=C(Nc1ccccc1)OC1CCCCCC1OC(=O)Nc1ccccc1 (stereo not given) [cycloheptane-1,2-diyl bis(phenylcarbamate)]
65 | 94 °C | O=C(N[C@H](CO)Cc1ccccc1)OCc1ccccc1 [N-benzyloxycarbonyl-l-phenylalaninol]
66 | 81 °C | CC(C)(C(=O)O)c1ccccc1 [alpha,alpha-dimethylphenylacetic acid]
67 | 101 °C | O=Cc1cc(Cl)ccc1O [5-chlorosalicylaldehyde]
68 | -94.9 °C | CCc1ccccc1 [Ethylbenzene]
69 | 53 °C | N#CCc1ccc(I)cc1 [4-iodophenylacetonitrile]
70 | 141 °C | CNC(=NC#N)NCCSCc1nc[nH]c1C [cimetidine]
71 | 125 °C | CCOC(=O)CCC(C)C1CCC2C3C(=O)C(Br)C4CC(OC(C)=O)CCC4(C)C3CC(OC(C)=O)C12C (stereo not given) [ethyl 3,12-bis(acetyloxy)-6-bromo-7-oxocholan-24-oate]
72 | 144 °C | CN(C)CC(=O)N1c2ccccc2Sc2ccccc21 [ahistan]
73 | 226 °C | Cc1nc(-c2ccccn2)sc1C(=O)O [4-methyl-2-(2-pyridyl)thiazole-5-carboxylic acid]

Row | melting point | Compound
74 | 80 °C | c1ccc2c(c1)OCCOCCOCCOCCO2 [benzo-15-crown-5]
75 | -53 °C | C1=C\CCCC\C=C/1 [(1Z,3Z)-Cycloocta-1,3-diene]
76 | 122 °C | C=C(CC)C(=O)c1ccc(OCC(=O)O)c(Cl)c1Cl [Ethacrynic acid]
77 | 269 °C | c1ccc2c(c1)ccc1cc3c(ccc4ccccc43)cc12 [Dibenz[ah]anthracene]
78 | 121 °C | CC(=O)[C@H]1CC[C@H]2[C@@H]3CCC4=CC(=O)CC[C@]4(C)[C@H]3CC[C@]12C [Progesterone]
79 | 27 °C | CNC(C)=O [N-methylacetamide]
80 | 269 °C | C1[C@H]3C[C@@H]2C[C@@H](C[C@H]1C2)C3 [Adamantane]
81 | 188 °C | Nc1ccc2[nH]c(C(F)(F)F)nc2c1 [5-amino-2-(trifluoromethyl)benzimidazole]
82 | 53 °C | CCCCCCCCCCCCCCC(=O)O [pentadecanoic acid]
83 | -62 °C | CC1=CC[C@@H]2C[C@H]1C2(C)C [alpha-pinene]
84 | 220 °C | c1ccc(-c2ccnc3c2ccc2c(-c4ccccc4)ccnc23)cc1 [bathophenanthroline]
85 | 126 °C | CC(Oc1c(Cl)cccc1Cl)C1=NCCN1 (stereo not given) [lofexidine]
86 | 153 °C | c1ccc(Oc2cccc(-c3nnn[nH]3)c2)cc1 [5-(3-phenoxyphenyl)-1h-tetrazole]
87 | 194 °C | C[C@@H](CN1CC(=O)NC(=O)C1)N1CC(=O)NC(=O)C1 [Dexrazoxane]
88 | 117 °C | CCOC(=O)c1ccc(O)cc1 [Ethyl 4-hydroxybenzoate]
89 | 140 °C | O=C(O)c1ccc(Br)s1 [5-bromothiophene-2-carboxylic acid]
90 | 36 °C | CC(=O)c1cccc(C(C)=O)c1 [m-diacetylbenzene]
91 | 119 °C | O=C(O)Cc1cccc([N+](=O)[O-])c1 [m-nitro_phenylacetic_acid]
92 | 166 °C | Cc1ccc(/N=N/c2ccc(N(C)C)cc2)cc1 [4-dimethylamino-4'-methylazobenzene]
93 | 62 °C | CC(C)=NO [acetone oxime]
94 | 183 °C | CN(C)[C@@H]1C(O)=C(C(N)=O)C(=O)[C@@]2(O)C(O)=C3C(=O)c4c(O)cccc4[C@@](C)(O)[C@H]3[C@H](O)[C@@H]12 [Oxytetracycline]
95 | 158 °C and 157 °C | O=C(O)c1ccccc1O [salicylic acid]
